Here are results for four molecules from paper PMC7673765 (Science Advances, 2020).

The half-life is how long it takes for the measured level to halve. Higher therefore signals slow decline. In general, Cmax refers to the maximum level reached in the sampled fluid or tissue. Broadly, the inhibition is the share of the control response that was lost under treatment. Usually IC50 stands for the point on the concentration scale where inhibition reaches its midpoint. The term Kd denotes the concentration at which binding is half-saturated.

Series [1] deals with ERα. Nature of the series: Western blots of ERα in BC cell lines. It is filed as cell-based, human. On the technique in general: In western blotting, separated proteins are transferred to a membrane and probed.
Series [2] deals with LMTK3. Nature of the series: Western blots of LMTK3 in BC cell lines. The class given is cell-based, human. Conditions: for endogenous LMTK3 protein levels (Western blot): increasing concentrations of HSP90 inhibitor, 72 hours.
Series [3] deals with HSP70. The series can be described thus: Western blots of HSP70 in BC cell lines. It is filed as cell-based, human. Conditions: increasing concentrations of HSP90 inhibitor, 72 hours.
Series [4] in a line: Pharmacokinetics in mice. The class given is in vivo. The conditions noted are these: male, BALB/c (nude), mouse, plasma.
For series [5], the system named is NCI-60 panel of tumor cell lines. Nature of the series: NCI-60 one-dose screening. It is filed as cell-based. Conditions: Homo sapiens, 24 h, read-out: inhibition of all cancer cell lines.
Series [6] relates to BC cell lines (MCF7, T47D, MDA-MB-231). Nature of the series: Cell death and apoptosis. The class given is cell-based, human. The conditions noted are these: increasing concentrations of C28, 72 hours.
Series [7] relates to MMTV-Neu mammary tumors. Nature of the series: MMTV-Neu transgenic mammary tumor model. The class given is in vivo, mice.
Series [8] has as its target T1, IRAK4 (Homo sapiens, UniProt Q9NWZ3).
T1 sequence (Q9NWZ3 1-460): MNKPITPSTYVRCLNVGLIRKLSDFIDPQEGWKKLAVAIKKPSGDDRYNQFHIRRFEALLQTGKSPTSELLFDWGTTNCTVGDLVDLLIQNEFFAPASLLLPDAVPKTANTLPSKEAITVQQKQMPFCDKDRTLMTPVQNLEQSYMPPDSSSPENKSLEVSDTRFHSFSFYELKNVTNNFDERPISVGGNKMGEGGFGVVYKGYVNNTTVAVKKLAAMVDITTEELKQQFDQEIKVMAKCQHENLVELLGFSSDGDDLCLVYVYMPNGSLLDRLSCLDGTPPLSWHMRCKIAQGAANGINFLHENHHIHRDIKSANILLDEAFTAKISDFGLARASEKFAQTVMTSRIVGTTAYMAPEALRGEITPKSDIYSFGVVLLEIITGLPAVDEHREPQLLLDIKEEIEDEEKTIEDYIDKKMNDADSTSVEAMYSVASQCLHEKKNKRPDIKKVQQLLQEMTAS
Nature of the series: Western blots of kinases in BC cell lines. The conditions noted are these: 10 μM C28, different time points.

For series [9], the target named is human HSP90α (Homo sapiens, UniProt P07900). Nature of the series: Isothermal titration calorimetry. It is filed as binding. Conditions: 0.2 mM C28 injected into 20 μM human HSP90α.
The target in series [10] is HIPK2 (Homo sapiens, UniProt Q9H2X6). Nature of the series: Western blots of kinases in BC cell lines. Conditions: 10 μM C28, different time points.
Series [11] can be described thus: Histopathologic analysis of tumor sections and organs, MMTV-Neu mice. The class given is in vivo. The conditions noted are these: C28 10 mg/kg oral daily.
Series [12] concerns NCI-60 cell lines. Nature of the series: NCI-60 five-dose evaluation. It is filed as cell-based, human. Conditions: five doses.
In series [13] the test system is MCF12A. Nature of the series: Cell death and apoptosis. The class given is cell-based, human. Conditions: even at high concentrations of C28 and longer time points.
For series [14], the system named is CDC37. The series can be described thus: Western blots of chaperones in BC cell lines. It is filed as cell-based, human. Conditions: increasing concentrations of C28, 48 hours.
Series [15] concerns BC cells. Nature of the series: Cell viability assay. The class given is cell-based. Conditions: Homo sapiens, 72 h, read-out: IC50 values, growth of BC cells.
In series [16] the test system is HSP90. The series can be described thus: Western blots of chaperones in BC cell lines. The class given is cell-based, human. The conditions noted are these: increasing concentrations of C28, 48 hours.
For series [17], the system named is MDA-MB-231 xenografts. The series can be described thus: MDA-MB-231 xenograft mouse model. The class given is in vivo, NSG mice. The conditions noted are these: C28 10 mg/kg oral daily; after 23 days.
The target of series [18] is T2, human CDC37 (cell division cycle 37), recombinant (human, UniProt Q16543 1-378).
T2 sequence (looked up): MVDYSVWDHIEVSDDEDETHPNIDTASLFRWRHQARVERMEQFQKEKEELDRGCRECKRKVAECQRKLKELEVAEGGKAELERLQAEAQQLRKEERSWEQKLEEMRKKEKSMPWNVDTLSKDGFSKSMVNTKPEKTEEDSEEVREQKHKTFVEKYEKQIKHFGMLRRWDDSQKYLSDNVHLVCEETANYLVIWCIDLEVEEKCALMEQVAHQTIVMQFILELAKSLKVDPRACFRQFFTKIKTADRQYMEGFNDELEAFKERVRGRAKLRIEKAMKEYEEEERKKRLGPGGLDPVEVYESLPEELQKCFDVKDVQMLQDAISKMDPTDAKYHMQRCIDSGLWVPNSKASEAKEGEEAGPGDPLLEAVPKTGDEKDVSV
Nature of the series: MST.

“Also recorded” adds a separate entry of the source. Where only a bound is given, the exact number is not on record here.

Chain of HIPK2 (Q9H2X6 whole entry): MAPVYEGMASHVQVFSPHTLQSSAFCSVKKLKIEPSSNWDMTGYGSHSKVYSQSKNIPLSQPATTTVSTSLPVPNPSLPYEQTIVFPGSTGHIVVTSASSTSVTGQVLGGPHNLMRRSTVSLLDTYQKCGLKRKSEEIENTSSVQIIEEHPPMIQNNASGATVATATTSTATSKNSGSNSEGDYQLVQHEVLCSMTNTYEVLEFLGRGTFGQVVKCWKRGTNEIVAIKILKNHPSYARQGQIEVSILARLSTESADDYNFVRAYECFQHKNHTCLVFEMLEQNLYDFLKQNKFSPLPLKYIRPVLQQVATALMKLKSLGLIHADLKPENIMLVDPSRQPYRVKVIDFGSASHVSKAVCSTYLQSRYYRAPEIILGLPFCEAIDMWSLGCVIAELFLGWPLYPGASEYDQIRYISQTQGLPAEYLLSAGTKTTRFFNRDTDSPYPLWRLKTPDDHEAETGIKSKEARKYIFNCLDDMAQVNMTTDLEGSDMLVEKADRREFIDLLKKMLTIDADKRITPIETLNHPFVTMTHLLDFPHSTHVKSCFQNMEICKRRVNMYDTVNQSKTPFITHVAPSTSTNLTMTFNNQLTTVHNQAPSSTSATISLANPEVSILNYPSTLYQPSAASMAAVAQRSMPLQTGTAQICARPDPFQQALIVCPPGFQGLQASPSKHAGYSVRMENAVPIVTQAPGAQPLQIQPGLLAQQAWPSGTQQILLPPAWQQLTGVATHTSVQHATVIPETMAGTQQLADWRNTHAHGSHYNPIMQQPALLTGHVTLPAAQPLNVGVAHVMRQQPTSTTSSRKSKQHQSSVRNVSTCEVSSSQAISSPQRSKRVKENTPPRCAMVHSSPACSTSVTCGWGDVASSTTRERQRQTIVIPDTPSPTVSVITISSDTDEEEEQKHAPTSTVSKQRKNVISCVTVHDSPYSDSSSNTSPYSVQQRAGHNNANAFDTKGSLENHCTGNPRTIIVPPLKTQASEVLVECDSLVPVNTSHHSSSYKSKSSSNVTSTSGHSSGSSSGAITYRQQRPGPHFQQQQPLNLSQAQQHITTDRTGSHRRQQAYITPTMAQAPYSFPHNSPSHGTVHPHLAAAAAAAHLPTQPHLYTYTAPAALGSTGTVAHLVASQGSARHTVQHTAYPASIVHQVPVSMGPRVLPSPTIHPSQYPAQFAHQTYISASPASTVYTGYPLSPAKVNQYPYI

On to `CCNC(=O)c1noc(-c2cc(C(C)C)c(O)cc2O)c1-c1ccc(CN2CCOCC2)cc1` [NVP-AUY922], for which the “ERα levels (Western blot)” value in [1] (BC cell lines, HSP90 inhibitor, 72 hours) is listed as “down-regulation of ERα”. Moreover, the “endogenous LMTK3 protein levels (Western blot)” value in series [2] is on record as “reduction of endogenous LMTK3 protein levels”. Also, in series [3], the “HSP70 levels (Western blot)” value is “induction of HSP70”.

Consider `FC(F)(F)Oc1cccc(-c2cnc3ccc(-c4ccncc4)nn23)c1` [C28, 6-(pyridin-4-yl)-3-(3-(trifluoromethoxy)phenyl)imidazo[1,2-b]pyridazine], for which the half-life was roughly 59 min in [4] (ip, 10 mg/kg, T1/2, plasma); roughly 10 min in series [4] (iv, 5 mg/kg, half-life (T1/2)); roughly 62 min in [4] (po, 10 mg/kg, T1/2, plasma). The Cmax in [4] (iv, 5 mg/kg) was 4.3 µM; in series [4] (po, 10 mg/kg), 632 ng/mL. The inhibition at 10 µM in [5] is greater than 50%. The “protein levels of ERα (Western blot)” value in [1] (BC cell lines treated with C28) is on record as “decreased protein levels of ERα”. Further, the “apoptosis of BC cell lines” value in [6] was “triggered apoptosis”. The “Ki-67 IHC analysis of tumor sections” value in [7] (C28 10 mg/kg) is “decreased proliferation”. Besides, the “LMTK3 expression in tumors (IHC staining)” value in series [7] (C28 10 mg/kg) was “reduction of LMTK3 expression”. Besides, the “tumor growth compared to the vehicle-treated group” value in series [7] (C28 10 mg/kg oral daily) is on record as “nearly completely abrogated tumor growth”. Also, the “IRAK4 protein levels (Western blot)” value in [8] is recorded as “degradation”. Further, the “binding to HSP90α (ITC)” value in series [9] is “no detectible heat of interaction; also recorded: does not bind to HSP90”. For the same molecule, in series [10], the “HIPK2 protein levels (Western blot)” value was “degradation”. Moreover, in series [11], the “toxicity (histopathology of tumor, lung, stomach, heart, kidney, liver, spleen)” value is listed as “lack of toxicity”. For the same molecule, in [12], the “sensitivity of renal cancer cells” value is listed as “more sensitive”. Further, the “cell death of nontransformed MCF12A” value in [13] is given as “low percentage of cell death”. For the same molecule, the “protein levels of CDC37 (Western blot)” value in series [14] is “no effect”. Besides, in series [15], the IC50 fell in the range of 6.5 to 8.64 µM. The “LMTK3 protein levels (Western blot)” value in series [2] (increasing concentrations of C28, different time points) is “time- and dose-dependent degradation of LMTK3”. Also, the “protein levels of HSP90 (Western blot)” value in series [16] is given as “no effect”. Moreover, in series [17], the “tumor growth compared to the control group” value is reported as “significantly impeded growth”.

For the molecule `COC1=C2C[C@@H](C)C[C@H](OC)[C@H](O)[C@@H](C)/C=C(\C)[C@H](OC(N)=O)[C@@H](OC)/C=C\C=C(/C)C(=O)NC(=CC1=O)C2=O` [geldanamycin], in series [2], the “endogenous LMTK3 protein levels (Western blot)” value was “reduction of endogenous LMTK3 protein levels”. For the same molecule, the “HSP70 levels (Western blot)” value in [3] was “induction of HSP70”.

B1: LMTK3 catalytic domain (LMTK3cat; amino acids 134 to 444) (domain or fragment, UniProt Q96Q04 105-415, looked up)
chain: LAEVSLPMPAPQPSHSDMTTPLGLSRQHLSYLQEIGSGWFGKVILGEIFSDYTPAQVVVKELRASAGPLEQRKFISEAQPYRSLQHPNVLQCLGLCVETLPFLLIMEFCQLGDLKRYLRAQRPPEGLSPELPPRDLRTLQRMGLEIARGLAHLHSHNYVHSDLALRNCLLTSDLTVRIGDYGLAHSNYKEDYYLTPERLWIPLRWAAPELLGELHGTFMVVDQSRESNIWSLGVTLWELFEFGAQPYRHLSDEEVLAFVVRQQHVKLARPRLKLPYADYWYDILQSCWRPPAQRPSASDLQLQLTYLLSER
modifications: covalently labeled with a red NHS-647 fluorophore (NT647) for MST
For B1, in series [18], the Kd is 2.21 ± 1.17 µM.
